Measurements taken from US9693971B2, “Compositions for alleviating gastrointestinal tract disorders or associated systemic disorders in ruminants and camelids” (FREIE UNIVERSITÄT BERLIN, priority 2012, dated 2017).
Entries after “also recorded” stand apart in the source; their conditions may differ.

Columns and labels:
[1] = biological target: TRPV4 (Homo sapiens, UniProt Q9HBA0); settings: cited from earlier work
[2] = biological target: TRPA1 (Homo sapiens, UniProt O75762); settings: cited from earlier work
TRPA1, sequence (O75762 whole entry, species assumed): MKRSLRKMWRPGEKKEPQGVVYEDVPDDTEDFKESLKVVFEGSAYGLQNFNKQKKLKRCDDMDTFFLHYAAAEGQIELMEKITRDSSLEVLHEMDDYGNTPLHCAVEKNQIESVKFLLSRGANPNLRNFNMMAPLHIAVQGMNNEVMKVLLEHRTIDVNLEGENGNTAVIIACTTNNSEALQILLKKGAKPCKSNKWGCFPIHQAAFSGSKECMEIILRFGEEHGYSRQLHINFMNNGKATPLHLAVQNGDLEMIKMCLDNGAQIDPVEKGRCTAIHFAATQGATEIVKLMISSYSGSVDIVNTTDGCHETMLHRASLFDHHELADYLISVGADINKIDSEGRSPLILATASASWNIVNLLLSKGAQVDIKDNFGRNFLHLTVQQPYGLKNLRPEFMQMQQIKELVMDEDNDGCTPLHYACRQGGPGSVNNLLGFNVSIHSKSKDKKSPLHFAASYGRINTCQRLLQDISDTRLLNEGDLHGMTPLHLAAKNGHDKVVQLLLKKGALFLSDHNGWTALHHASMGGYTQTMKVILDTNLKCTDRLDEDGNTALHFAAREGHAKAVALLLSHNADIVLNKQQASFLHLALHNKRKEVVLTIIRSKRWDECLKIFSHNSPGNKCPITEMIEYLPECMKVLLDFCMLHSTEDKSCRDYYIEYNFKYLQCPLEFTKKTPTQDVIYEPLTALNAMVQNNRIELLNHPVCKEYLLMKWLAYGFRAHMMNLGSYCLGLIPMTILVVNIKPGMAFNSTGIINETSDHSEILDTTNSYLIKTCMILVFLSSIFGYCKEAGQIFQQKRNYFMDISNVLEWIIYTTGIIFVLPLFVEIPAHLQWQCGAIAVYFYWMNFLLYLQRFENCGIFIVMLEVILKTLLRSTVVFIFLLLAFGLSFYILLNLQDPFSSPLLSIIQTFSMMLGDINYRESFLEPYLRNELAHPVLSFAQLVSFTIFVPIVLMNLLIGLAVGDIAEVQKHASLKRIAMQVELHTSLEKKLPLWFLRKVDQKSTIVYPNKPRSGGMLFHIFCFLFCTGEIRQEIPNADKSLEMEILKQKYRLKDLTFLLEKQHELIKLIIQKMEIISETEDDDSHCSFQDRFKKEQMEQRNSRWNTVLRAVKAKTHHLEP

[3] = biological target: T1, TRPV2 (Homo sapiens, UniProt Q9Y5S1); settings: cited from earlier work
T1 sequence (Q9Y5S1 1-764): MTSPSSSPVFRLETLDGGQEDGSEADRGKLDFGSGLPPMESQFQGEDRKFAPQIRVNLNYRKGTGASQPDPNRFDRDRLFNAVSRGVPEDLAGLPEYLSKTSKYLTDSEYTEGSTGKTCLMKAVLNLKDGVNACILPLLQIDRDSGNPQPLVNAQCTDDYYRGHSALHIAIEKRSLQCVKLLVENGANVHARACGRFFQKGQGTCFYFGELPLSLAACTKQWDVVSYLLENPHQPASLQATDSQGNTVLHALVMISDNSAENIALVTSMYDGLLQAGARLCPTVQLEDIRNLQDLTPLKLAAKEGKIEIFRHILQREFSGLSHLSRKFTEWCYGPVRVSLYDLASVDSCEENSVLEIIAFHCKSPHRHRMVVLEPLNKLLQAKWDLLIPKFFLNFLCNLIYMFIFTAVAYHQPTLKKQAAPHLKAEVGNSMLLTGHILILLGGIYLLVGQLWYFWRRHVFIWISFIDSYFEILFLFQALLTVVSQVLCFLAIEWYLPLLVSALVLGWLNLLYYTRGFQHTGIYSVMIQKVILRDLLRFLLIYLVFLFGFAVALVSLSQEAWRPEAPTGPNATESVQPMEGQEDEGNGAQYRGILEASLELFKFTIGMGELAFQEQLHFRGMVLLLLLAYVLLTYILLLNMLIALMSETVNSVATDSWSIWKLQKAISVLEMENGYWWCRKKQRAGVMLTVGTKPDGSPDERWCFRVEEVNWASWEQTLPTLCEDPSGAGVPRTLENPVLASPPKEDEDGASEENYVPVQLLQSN

[4] = system: rumen epithelium from cattle; test: Ussing chamber: ammonium-induced transepithelial short-circuit current (Isc) across isolated rumen epithelium; assay type: cell-based; settings: for influence on ammonium-induced conductivity / transport across rumen epithelium (profile in words): no concentration stated
From the text: The experiments on the intact epithelium take place as already specified (Abdoun, Stumpff et al. 2005; Abdoun, Stumpff et al. 2010). The measuring techniques used are a combination of the Ussing chamber technique developed by Ussing (1949) and the microelectrode technique.
When examining epithelial transport processes with the Ussing chamber, the epithelium is installed in a special chamber, which makes it possible to rinse the two sides of the epithelium (apical: food side; basolateral: blood side) separately of each other with buffer solutions of various composition, wherein the electrophysiological parameters (current and voltage) across the epithelium are traced. Hereby, it is made possible to differentiate between the transport of an uncharged substance (e.g. ammonia, NH3) and the transport of a charged substance (e.g. ammonium, NH4^+), as the former takes place without a change in current and voltage, whereas the latter is coupled with the transfer of a charge and thus changes the transepithelial electrical parameters.
With the help of a special modification, the reaction of individual epithelia to solution changes, taking place very rapidly and smoothly, is also examined over time. Hereby, for example, the reproducibility of a pharmacological intervention on the same piece of epithelium can very well be examined. This modification of the classic Ussing chamber technique is particularly, albeit not exclusively, used for the comparative “screening” of the various substances which are subject of an aspect of the present invention.
The epithelium is horizontally clamped into a modified Ussing chamber, wherein the mucosal side faces upwards. The chamber made of plexi-glass has a cross-section surface of 0.79 cm^2, which is corrected to 1 cm^2. As a protection against damages on the edges of the epithelium, “edge damage”, a silicone ring is in each case placed between chamber and epithelium. The two resulting chambers (mucosal and serosal) are each supplied by their own perfusion system (4-channel-stand-pump, Ismatec SA). With three-way valves, an independent solution change between altogether eight solutions is possible in the two chambers. During storage, the solutions are gassed in their containers with 100% O2. To warm the solutions up to 37° C., the thin perfusion tubes run through a heat exchanger pump. The suction device (Masterflex R/S, Cole Parmer Instrument Company) present in both chambers guarantees a rapid and safe change of solution. In order to ensure that there are no solution change artefacts when adding agonists and antagonists, the substances are pipetted into the respective solution, wherein the gassing ensures a rapid mixing. In this way, pressure fluctuations or an interruption of the flow through the chamber can be safely precluded.
As in the conventional Ussing chamber technique, there are in each case two electrodes near the tissue and two electrodes distant from the tissue for measuring the transepithelial potential difference and the transepithelial current (Isc). The connections between the Ag/AgCl electrodes, which are filled with 3 M KCl, are established via agar bridges. Just as in Strecker (Strecker 2011), the measuring chamber is connected to a “voltage clamp” installation (Ussing chamber unit) in assembly with a microelectrode amplifier (both Biomedical Instruments Co., Germering). A micromanipulator (MF 500) installed above the measuring chamber offers the possibility to move the microelectrode in fine μm steps. Additionally, a microscope as well as a cold-light source are located above the apparatus.
Menthol (Sigma-Aldrich) was dissolved at a concentration of 1 mol·l^−1 in ethanol and pipetted into the used test solution containing ammonium. For an end concentration of 1 mmol·l^−1, 20 μl of this stock solution was added to 20 ml test solution; for 200 μmol·l^−1 correspondingly less. In control experiments, corresponding amounts of pure ethanol were added to the test solution.

[5] = biological target: T2, TRPV3 (Homo sapiens, UniProt Q8NET8); settings: cited from earlier work
T2 sequence (Q8NET8 1-790): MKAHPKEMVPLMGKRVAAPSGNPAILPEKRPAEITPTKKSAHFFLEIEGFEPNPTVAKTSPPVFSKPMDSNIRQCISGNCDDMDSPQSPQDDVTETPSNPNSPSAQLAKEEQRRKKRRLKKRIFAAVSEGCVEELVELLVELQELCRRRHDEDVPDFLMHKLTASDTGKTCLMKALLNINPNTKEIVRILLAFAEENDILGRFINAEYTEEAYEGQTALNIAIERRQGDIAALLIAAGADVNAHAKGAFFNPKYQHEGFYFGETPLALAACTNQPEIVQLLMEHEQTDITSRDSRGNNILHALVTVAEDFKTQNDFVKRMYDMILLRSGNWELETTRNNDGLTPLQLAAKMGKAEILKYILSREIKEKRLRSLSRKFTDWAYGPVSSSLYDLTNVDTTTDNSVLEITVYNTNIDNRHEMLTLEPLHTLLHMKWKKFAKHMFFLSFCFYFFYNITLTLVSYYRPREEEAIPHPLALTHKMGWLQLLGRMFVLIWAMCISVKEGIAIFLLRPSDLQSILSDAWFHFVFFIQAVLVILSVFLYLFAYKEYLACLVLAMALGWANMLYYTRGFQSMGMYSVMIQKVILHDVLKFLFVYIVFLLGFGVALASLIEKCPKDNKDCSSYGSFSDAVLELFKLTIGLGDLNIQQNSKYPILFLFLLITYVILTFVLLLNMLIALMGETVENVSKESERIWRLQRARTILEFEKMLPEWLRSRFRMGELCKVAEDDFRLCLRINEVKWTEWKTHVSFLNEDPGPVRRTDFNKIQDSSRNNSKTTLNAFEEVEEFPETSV

[6] = system: E. coli; settings: 0.3% menthol in feed dry mass (8 g menthol/day) for 30 days, bulls; cited from earlier work
[7] = biological target: TRPM8 (Homo sapiens, UniProt Q7Z2W7); settings: cited from earlier work
TRPM8, sequence (Q7Z2W7 whole entry, species assumed): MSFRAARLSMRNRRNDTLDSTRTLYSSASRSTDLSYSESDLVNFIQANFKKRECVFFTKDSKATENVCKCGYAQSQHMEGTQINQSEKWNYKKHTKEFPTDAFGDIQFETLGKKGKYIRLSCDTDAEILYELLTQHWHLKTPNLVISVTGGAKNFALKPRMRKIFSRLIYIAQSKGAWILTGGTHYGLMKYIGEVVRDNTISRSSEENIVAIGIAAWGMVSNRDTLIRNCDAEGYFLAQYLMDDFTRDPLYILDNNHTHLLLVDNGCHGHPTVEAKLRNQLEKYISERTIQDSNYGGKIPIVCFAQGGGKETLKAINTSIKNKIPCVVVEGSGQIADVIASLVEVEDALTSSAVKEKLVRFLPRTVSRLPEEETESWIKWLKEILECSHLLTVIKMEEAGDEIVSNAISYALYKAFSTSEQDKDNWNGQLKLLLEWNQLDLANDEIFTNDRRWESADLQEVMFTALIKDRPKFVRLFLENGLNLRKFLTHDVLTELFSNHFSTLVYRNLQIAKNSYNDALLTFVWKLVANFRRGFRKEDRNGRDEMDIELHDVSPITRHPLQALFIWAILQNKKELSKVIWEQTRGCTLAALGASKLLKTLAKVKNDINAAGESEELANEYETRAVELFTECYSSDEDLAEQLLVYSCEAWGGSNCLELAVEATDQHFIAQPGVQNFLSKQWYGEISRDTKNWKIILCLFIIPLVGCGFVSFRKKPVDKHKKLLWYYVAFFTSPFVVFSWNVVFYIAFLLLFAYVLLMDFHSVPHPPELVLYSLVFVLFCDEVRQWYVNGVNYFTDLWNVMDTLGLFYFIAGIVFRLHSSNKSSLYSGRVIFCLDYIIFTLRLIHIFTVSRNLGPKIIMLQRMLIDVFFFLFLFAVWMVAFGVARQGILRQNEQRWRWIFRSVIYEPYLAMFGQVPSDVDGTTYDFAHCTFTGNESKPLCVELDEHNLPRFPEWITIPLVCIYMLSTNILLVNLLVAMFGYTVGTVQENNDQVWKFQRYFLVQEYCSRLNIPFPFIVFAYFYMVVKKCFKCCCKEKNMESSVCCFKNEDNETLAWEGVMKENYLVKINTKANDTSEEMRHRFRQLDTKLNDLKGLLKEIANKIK

[8] = system: rumen epithelium; test: Ca^45 calcium flux across rumen epithelium in conventional Ussing chambers, menthol vs control group; assay type: cell-based; settings: menthol 200 μM or 1 mM; N=4 cattle, n=85 epithelia; FIG. 10A
From the text: (§1) Supplementary, the transport rate of a substance across the epithelium is quantitatively determined by examining the buffer solution prior to and after a defined test period (in conjunction with the methods of an aspect of the present invention for determining the ammonia flux by means of an ammonia electrode (Thermo Scientific Orion 9512HPBNWP, Thermo Fisher Scientific Inc., Waltham, Mass. 02454) while at the same time registering shifts in the solution pH, or measuring the calcium flux with radioactive isotopes).
(§2) For a direct verification of a modulation of the calcium transport across the rumen epithelium, a radioactive calcium isotope (Ca^45) was employed in further experiments. The measurements were carried out in conventional Ussing chambers without continuous perfusion. Herein, tissue of N=4 (cattle) was collected and n=85 epithelia were used therein.
(§3) The isotope was employed on the mucosal side (corresponding to the side on which the food is) and the emergence on the blood side was measured.
Approach: Three groups were formed. One group remained untreated as control. The other two groups were each treated with menthol at a dose of 200 μM or 1 mM, respectively, and compared to the control (100%).

[9] = corresponding to 30 g/60 l; cited from earlier work
[10] = system: bacteria flora in the ruminal fluid; settings: in vitro, thymol 3-12 g/60 l; cited from earlier work
[11] = system: bacteria flora; settings: 1.5 mM thymol (corresponding to 14 g/60 l ruminal fluid); cited from earlier work
[12] = system: rumen epithelium; test: Ca^45 calcium flux across rumen epithelium in conventional Ussing chambers, thymol vs basal value; assay type: cell-based, one cow, one sheep; settings: after adding thymol; N=2, n=44 epithelia; FIG. 10B
From the text: as §1, §2, §3
Approach: First, a basal value of the Ca flux across the rumen epithelium was detected. Then a substance was added. The subsequently measured Ca flux was compared to the starting value (100%). […]

TRPV4, sequence (Q9HBA0 whole entry, species assumed): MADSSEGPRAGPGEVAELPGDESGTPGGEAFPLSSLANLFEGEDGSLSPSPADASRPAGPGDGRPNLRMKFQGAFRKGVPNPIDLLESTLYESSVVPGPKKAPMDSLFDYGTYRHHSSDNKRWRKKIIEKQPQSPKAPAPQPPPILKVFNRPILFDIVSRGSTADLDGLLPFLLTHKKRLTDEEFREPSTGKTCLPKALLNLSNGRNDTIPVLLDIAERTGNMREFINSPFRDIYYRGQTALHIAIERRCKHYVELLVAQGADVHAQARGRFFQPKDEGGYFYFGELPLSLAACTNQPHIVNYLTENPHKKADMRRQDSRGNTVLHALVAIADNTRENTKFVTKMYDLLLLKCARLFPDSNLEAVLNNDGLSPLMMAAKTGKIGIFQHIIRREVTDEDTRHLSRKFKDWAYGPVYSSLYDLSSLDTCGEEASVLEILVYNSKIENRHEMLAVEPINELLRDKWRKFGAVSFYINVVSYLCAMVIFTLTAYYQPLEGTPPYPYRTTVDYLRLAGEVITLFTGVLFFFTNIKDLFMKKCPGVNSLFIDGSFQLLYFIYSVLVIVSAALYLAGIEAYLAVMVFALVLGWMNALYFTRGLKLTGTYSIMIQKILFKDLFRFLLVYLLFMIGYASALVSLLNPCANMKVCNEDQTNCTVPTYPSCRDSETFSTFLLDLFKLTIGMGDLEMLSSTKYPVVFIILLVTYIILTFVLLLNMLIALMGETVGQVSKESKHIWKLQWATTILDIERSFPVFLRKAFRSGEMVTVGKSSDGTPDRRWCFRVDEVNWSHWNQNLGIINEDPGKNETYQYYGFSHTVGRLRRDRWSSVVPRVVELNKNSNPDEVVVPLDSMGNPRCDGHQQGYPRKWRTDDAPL

In the case of `C=C1CC[C@@H]2[C@](C)(CO)[C@H](O)CC[C@@]2(C)[C@@H]1/C=C/C1=CC(C(C[C@@H]2C(=C)CC[C@@H]3[C@](C)(CO)[C@H](O)CC[C@]32C)C2=CCOC2=O)OC1=O` (some centres unmarked) [Bisandrographolide A], the “Effect on TRPV4” value [1] is given as “Agonist”.
In the case of `CCCCCc1cc(O)c2c(c1)OC(C)(C)[C@@H]1CCC(C)=C[C@@H]21` [Tetrahydrocannabinol, tetrahydrocannabinol], the “Effect on TRPA1” value [2] is listed as “Agonist” and the “Effect on TRPV2” value [3] is listed as “Agonist”.
For `CC1CCC(C(C)C)C(O)C1` (centres unmarked) [menthol], the “Effect on TRPA1” value [2] is listed as “Antagonist”, the “transepithelial current, Median” value ([4]; 200 μM menthol in 40 mM NH4^+, n=11, before −30.65) is listed as −34.21 μA · cm^−2 and the “transepithelial current, MV” value ([4]; 200 μM menthol in 40 mM NH4^+, n=11, before −30.99, washout −26.42) is listed as −36.34 μA · cm^−2. The “change of transepithelial current or voltage” value ([4]; 200 μmol·l^−1 to 1 mmol·l^−1 added to solution containing ammonium, apical) was “further considerable rise in the transepithelial current”, the “change of short-circuit current (Isc)” value ([4]; 1 mM menthol after 40 mM NH4Cl mucosal, FIG. 1 and 2, 13 measurements, three epithelia) was “further rise in that current; also recorded: statistically significant increase in the current across the epithelium” and the “transepithelial current, Median” value ([4]; 1 mM menthol in 40 mM NH4^+, n=12, before −22.76) was −26.90 μA · cm^−2. For the same compound, the “transepithelial current, MV” value ([4]; 1 mM menthol in 40 mM NH4^+, n=12, before −24.20, washout −20.88) was −28.73 μA · cm^−2, the “influence on ammonium-induced conductivity / transport across rumen epithelium (profile in words)” value [4] was “significantly influenced” and the “Effect on TRPV3” value [5] was “nonspecific”. For the same compound, the “influence on the amount of E. coli in the feces” value [6] was “no influence on the amount of E. coli in the feces”, the “Effect on TRPM8” value [7] was “potent TRPM8 agonist” and the “calcium transport across the rumen tissue compared to control group (100%)” value [8] was “concentration-dependent increase in the calcium transport”.
For `Cc1ccc(C(C)C)c(O)c1` [thymol], the “concentration with significant influence on pH, NH3 concentration and production of volatile fatty acids (VFA)” value [9] is given as ≥ 500 mg/1, the “effect on the bacteria flora in the ruminal fluid” value [10] is given as “no effect on the bacteria flora in the ruminal fluid” and the “transepithelial current, Median” value ([4]; 100 μM thymol in 40 mM NH4^+, n=4, before −19.30) is given as −19.35 μA · cm^−2. For the same compound, the “transepithelial current, MV” value ([4]; 100 μM thymol in 40 mM NH4^+, n=4, before −22.47, washout −15.82, p = 0.498) was −22.19 μA · cm^−2, the “influence on ammonium-induced conductivity / transport across rumen epithelium (profile in words)” value [4] was “inhibition, which can still be verified after washing out” and the “Effect on TRPV3” value [5] was “TRPV3 agonist; also recorded: nonspecific”. The “influence on methane, ammonium, acetate and propionate production” value [11] was “no influence on the methane, ammonium, acetate and propionate production” and the “Ca flux across the rumen epithelium compared to starting value (100%)” value [12] was “no significant long-term reduction of the calcium transport; also recorded: trend to increase the calcium resorption”.
